# Measurements: patent publication US6358885B1, “Substituted phenylheterocyclic herbicides” (Mississippi State University, priority 1992, dated 2002)
# Experiments:
# Experiment in all cases: Test B preemergence/postemergence greenhouse plant response rating 0 to 10
# sorghum = format: in vivo, Sorghum bicolor; settings: for Plant response rating, Sorghum: 0 to 10 scale
# How it was run: (§1)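 Test chemicals, dissolved in a non-phytotoxic solvent, were applied to soil at planting and, at the same time, over foliage of seedlings at the one to four leaf stage.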
# bedstraw = format: in vivo, Galium aparine; settings: for Plant response rating, Bedstraw: 0 to 10 scale
# How it was run: as §1
# lambsquarters = format: in vivo, Chenopodium album; settings: for Plant response rating, Lambsquarter: 0 to 10 scale
# How it was run: as §1
# purple nutsedge = format: in vivo, Cyperus rotundus; settings: for Plant response rating, Nutsedge: 0 to 10 scale
# How it was run: as §1
# velvetleaf = format: in vivo, Abutilon theophrasti; settings: for Plant response rating, Velvetleaf: 0 to 10 scale
# How it was run: as §1
# rape = format: in vivo, Brassica napus; settings: for Plant response rating, Rape: 0 to 10 scale
# How it was run: as §1
# wild oat = format: in vivo, Avena fatua; settings: for Plant response rating, Wild oat: 0 to 10 scale
# How it was run: as §1
# corn = format: in vivo, Zea mays; settings: for Plant response rating, Corn: 0 to 10 scale
# How it was run: as §1
# crabgrass = format: in vivo, Digitaria spp.; settings: for Plant response rating, Crabgrass: 0 to 10 scale
# How it was run: as §1
# cocklebur = format: in vivo, Xanthium pensylvanicum; settings: for Plant response rating, Cocklebur: 0 to 10 scale
# How it was run: as §1
# soybean = format: in vivo, Glycine max; settings: for Plant response rating, Soybean: 0 to 10 scale
# How it was run: as §1
# morningglory = format: in vivo, Ipomoea hederacea; settings: for Plant response rating, Morningglory: 0 to 10 scale
# How it was run: as §1
# cheatgrass = format: in vivo, Bromus secalinus; settings: for Plant response rating, Cheatgrass: 0 to 10 scale
# How it was run: as §1
# wheat = format: in vivo, Triticum aestivum; settings: for Plant response rating, Wheat: 0 to 10 scale
# How it was run: as §1
# barnyardgrass = format: in vivo, Echinochloa crus-galli; settings: for Plant response rating, Barnyardgrass: 0 to 10 scale
# How it was run: as §1
# wild buckwheat = format: in vivo, Polygonum convolvulus; settings: for Plant response rating, Wild buckwheat: 0 to 10 scale
# How it was run: as §1
# blackgrass = format: in vivo, Alopecurus myosuroides; settings: for Plant response rating, Blackgrass: 0 to 10 scale
# How it was run: as §1
# rice = format: in vivo, Oryza sativa; settings: for Plant response rating, Rice: 0 to 10 scale
# How it was run: as §1
# giant foxtail = format: in vivo, Setaria faberii; settings: for Plant response rating, Giant foxtail: 0 to 10 scale
# How it was run: as §1
# cotton = format: in vivo, Gossypium hirsutum; settings: for Plant response rating, Cotton: 0 to 10 scale
# How it was run: as §1
# barley = format: in vivo, Hordeum vulgare; settings: for Plant response rating, Barley: 0 to 10 scale
# How it was run: as §1
# sugar beet = format: in vivo, Beta vulgaris; settings: for Plant response rating, Sugar beet: 0 to 10 scale
# How it was run: as §1
# chickweed = format: in vivo, Stellaria media; settings: for Plant response rating, Chickweed: 0 to 10 scale
# How it was run: as §1
compound,measurement,setting,value
CON=C(C)c1cc(-c2nn3c(c2Cl)CCCC3)c(F)cc1Cl [Compound 82],"Plant response rating, Sorghum","sorghum; POSTEMERGENCE, Rate 50 g/ha",2
same,"Plant response rating, Sorghum","sorghum; PREEMERGENCE, Rate 50 g/ha",0
same,"Plant response rating (0 to 10 scale), Sorghum","sorghum; PREEMERGENCE, Rate 200 g/ha",2
same,"Plant response rating, Sorghum","sorghum; Rate 200 g/ha, POSTEMERGENCE",4
same,"Plant response rating, Bedstraw","bedstraw; POSTEMERGENCE, Rate 50 g/ha",8
same,"Plant response rating, Bedstraw","bedstraw; PREEMERGENCE, Rate 50 g/ha",0
same,"Plant response rating (0 to 10 scale), Bedstraw","bedstraw; PREEMERGENCE, Rate 200 g/ha",9
same,"Plant response rating, Bedstraw","bedstraw; Rate 200 g/ha, POSTEMERGENCE",9
same,"Plant response rating, Lambsquarter","lambsquarters; POSTEMERGENCE, Rate 50 g/ha",7
same,"Plant response rating, Lambsquarter","lambsquarters; PREEMERGENCE, Rate 50 g/ha",10
same,"Plant response rating (0 to 10 scale), Lambsquarter","lambsquarters; PREEMERGENCE, Rate 200 g/ha",10
same,"Plant response rating, Lambsquarter","lambsquarters; Rate 200 g/ha, POSTEMERGENCE",9
same,"Plant response rating, Nutsedge","purple nutsedge; POSTEMERGENCE, Rate 50 g/ha",2
same,"Plant response rating, Nutsedge","purple nutsedge; PREEMERGENCE, Rate 50 g/ha",0
same,"Plant response rating (0 to 10 scale), Nutsedge","purple nutsedge; PREEMERGENCE, Rate 200 g/ha",0
same,"Plant response rating, Nutsedge","purple nutsedge; Rate 200 g/ha, POSTEMERGENCE",2
same,"Plant response rating, Velvetleaf","velvetleaf; POSTEMERGENCE, Rate 50 g/ha",10
same,"Plant response rating, Velvetleaf","velvetleaf; PREEMERGENCE, Rate 50 g/ha",0
same,"Plant response rating (0 to 10 scale), Velvetleaf","velvetleaf; PREEMERGENCE, Rate 200 g/ha",10
same,"Plant response rating, Velvetleaf","velvetleaf; Rate 200 g/ha, POSTEMERGENCE",10
same,"Plant response rating, Rape","rape; POSTEMERGENCE, Rate 50 g/ha",5
same,"Plant response rating, Rape","rape; PREEMERGENCE, Rate 50 g/ha",0
same,"Plant response rating (0 to 10 scale), Rape","rape; PREEMERGENCE, Rate 200 g/ha",6
same,"Plant response rating, Rape","rape; Rate 200 g/ha, POSTEMERGENCE",7
same,"Plant response rating, Wild oat","wild oat; POSTEMERGENCE, Rate 50 g/ha",2
same,"Plant response rating, Wild oat","wild oat; PREEMERGENCE, Rate 50 g/ha",2
same,"Plant response rating (0 to 10 scale), Wild oat","wild oat; PREEMERGENCE, Rate 200 g/ha",7
same,"Plant response rating, Wild oat","wild oat; Rate 200 g/ha, POSTEMERGENCE",4
same,"Plant response rating, Corn","corn; POSTEMERGENCE, Rate 50 g/ha",3
same,"Plant response rating, Corn","corn; PREEMERGENCE, Rate 50 g/ha",0
same,"Plant response rating (0 to 10 scale), Corn","corn; PREEMERGENCE, Rate 200 g/ha",3
same,"Plant response rating, Corn","corn; Rate 200 g/ha, POSTEMERGENCE",4
same,"Plant response rating, Crabgrass","crabgrass; POSTEMERGENCE, Rate 50 g/ha",3
same,"Plant response rating, Crabgrass","crabgrass; PREEMERGENCE, Rate 50 g/ha",3
same,"Plant response rating (0 to 10 scale), Crabgrass","crabgrass; PREEMERGENCE, Rate 200 g/ha",7
same,"Plant response rating, Crabgrass","crabgrass; Rate 200 g/ha, POSTEMERGENCE",4
same,"Plant response rating, Cocklebur","cocklebur; POSTEMERGENCE, Rate 50 g/ha",7
same,"Plant response rating, Cocklebur","cocklebur; PREEMERGENCE, Rate 50 g/ha",0
same,"Plant response rating (0 to 10 scale), Cocklebur","cocklebur; PREEMERGENCE, Rate 200 g/ha",0
same,"Plant response rating, Cocklebur","cocklebur; Rate 200 g/ha, POSTEMERGENCE",8
same,"Plant response rating, Soybean","soybean; POSTEMERGENCE, Rate 50 g/ha",4
same,"Plant response rating, Soybean","soybean; PREEMERGENCE, Rate 50 g/ha",0
same,"Plant response rating (0 to 10 scale), Soybean","soybean; PREEMERGENCE, Rate 200 g/ha",6
same,"Plant response rating, Soybean","soybean; Rate 200 g/ha, POSTEMERGENCE",6
same,"Plant response rating, Morningglory","morningglory; POSTEMERGENCE, Rate 50 g/ha",10
same,"Plant response rating, Morningglory","morningglory; PREEMERGENCE, Rate 50 g/ha",0
same,"Plant response rating (0 to 10 scale), Morningglory","morningglory; PREEMERGENCE, Rate 200 g/ha",2
same,"Plant response rating, Morningglory","morningglory; Rate 200 g/ha, POSTEMERGENCE",10
same,"Plant response rating, Cheatgrass","cheatgrass; POSTEMERGENCE, Rate 50 g/ha",2
same,"Plant response rating, Cheatgrass","cheatgrass; PREEMERGENCE, Rate 50 g/ha",2
same,"Plant response rating (0 to 10 scale), Cheatgrass","cheatgrass; PREEMERGENCE, Rate 200 g/ha",6
same,"Plant response rating, Cheatgrass","cheatgrass; Rate 200 g/ha, POSTEMERGENCE",3
same,"Plant response rating, Wheat","wheat; POSTEMERGENCE, Rate 50 g/ha",3
same,"Plant response rating, Wheat","wheat; PREEMERGENCE, Rate 50 g/ha",0
same,"Plant response rating (0 to 10 scale), Wheat","wheat; PREEMERGENCE, Rate 200 g/ha",2
same,"Plant response rating, Wheat","wheat; Rate 200 g/ha, POSTEMERGENCE",4
same,"Plant response rating, Barnyardgrass","barnyardgrass; POSTEMERGENCE, Rate 50 g/ha",6
same,"Plant response rating, Barnyardgrass","barnyardgrass; PREEMERGENCE, Rate 50 g/ha",2
same,"Plant response rating (0 to 10 scale), Barnyardgrass","barnyardgrass; PREEMERGENCE, Rate 200 g/ha",6
same,"Plant response rating, Barnyardgrass","barnyardgrass; Rate 200 g/ha, POSTEMERGENCE",7
same,"Plant response rating, Wild buckwheat","wild buckwheat; POSTEMERGENCE, Rate 50 g/ha",10
same,"Plant response rating, Wild buckwheat","wild buckwheat; PREEMERGENCE, Rate 50 g/ha",7
same,"Plant response rating (0 to 10 scale), Wild buckwheat","wild buckwheat; PREEMERGENCE, Rate 200 g/ha",9
same,"Plant response rating, Wild buckwheat","wild buckwheat; Rate 200 g/ha, POSTEMERGENCE",10
same,"Plant response rating, Blackgrass","blackgrass; POSTEMERGENCE, Rate 50 g/ha",2
same,"Plant response rating, Blackgrass","blackgrass; PREEMERGENCE, Rate 50 g/ha",0
same,"Plant response rating (0 to 10 scale), Blackgrass","blackgrass; PREEMERGENCE, Rate 200 g/ha",4
same,"Plant response rating, Blackgrass","blackgrass; Rate 200 g/ha, POSTEMERGENCE",3
same,"Plant response rating, Rice","rice; POSTEMERGENCE, Rate 50 g/ha",4
same,"Plant response rating, Rice","rice; PREEMERGENCE, Rate 50 g/ha",0
same,"Plant response rating (0 to 10 scale), Rice","rice; PREEMERGENCE, Rate 200 g/ha",2
same,"Plant response rating, Rice","rice; Rate 200 g/ha, POSTEMERGENCE",6
same,"Plant response rating, Giant foxtail","giant foxtail; POSTEMERGENCE, Rate 50 g/ha",4
same,"Plant response rating, Giant foxtail","giant foxtail; PREEMERGENCE, Rate 50 g/ha",3
same,"Plant response rating (0 to 10 scale), Giant foxtail","giant foxtail; PREEMERGENCE, Rate 200 g/ha",6
same,"Plant response rating, Giant foxtail","giant foxtail; Rate 200 g/ha, POSTEMERGENCE",5
same,"Plant response rating, Cotton","cotton; POSTEMERGENCE, Rate 50 g/ha",10
same,"Plant response rating, Cotton","cotton; PREEMERGENCE, Rate 50 g/ha",0
same,"Plant response rating (0 to 10 scale), Cotton","cotton; PREEMERGENCE, Rate 200 g/ha",1
same,"Plant response rating, Cotton","cotton; Rate 200 g/ha, POSTEMERGENCE",10
same,"Plant response rating, Barley","barley; POSTEMERGENCE, Rate 50 g/ha",2
same,"Plant response rating, Barley","barley; PREEMERGENCE, Rate 50 g/ha",0
same,"Plant response rating (0 to 10 scale), Barley","barley; PREEMERGENCE, Rate 200 g/ha",0
same,"Plant response rating, Barley","barley; Rate 200 g/ha, POSTEMERGENCE",3
same,"Plant response rating, Sugar beet","sugar beet; POSTEMERGENCE, Rate 50 g/ha",10
same,"Plant response rating, Sugar beet","sugar beet; PREEMERGENCE, Rate 50 g/ha",8
same,"Plant response rating (0 to 10 scale), Sugar beet","sugar beet; PREEMERGENCE, Rate 200 g/ha",10
same,"Plant response rating, Sugar beet","sugar beet; Rate 200 g/ha, POSTEMERGENCE",10
same,"Plant response rating, Chickweed","chickweed; POSTEMERGENCE, Rate 50 g/ha",2
same,"Plant response rating, Chickweed","chickweed; PREEMERGENCE, Rate 50 g/ha",6
same,"Plant response rating (0 to 10 scale), Chickweed","chickweed; PREEMERGENCE, Rate 200 g/ha",0
same,"Plant response rating, Chickweed","chickweed; Rate 200 g/ha, POSTEMERGENCE",3
